This note sets out measurements from BindingDB's records for doi:10.1021/bi00246a005 (Texas A&M University, 1991).

The target of the assay is T1, Carbamoyl-phosphate synthase small chain (Escherichia coli (strain K12), UniProt P0A6F1).
T1 sequence (P0A6F1 whole entry): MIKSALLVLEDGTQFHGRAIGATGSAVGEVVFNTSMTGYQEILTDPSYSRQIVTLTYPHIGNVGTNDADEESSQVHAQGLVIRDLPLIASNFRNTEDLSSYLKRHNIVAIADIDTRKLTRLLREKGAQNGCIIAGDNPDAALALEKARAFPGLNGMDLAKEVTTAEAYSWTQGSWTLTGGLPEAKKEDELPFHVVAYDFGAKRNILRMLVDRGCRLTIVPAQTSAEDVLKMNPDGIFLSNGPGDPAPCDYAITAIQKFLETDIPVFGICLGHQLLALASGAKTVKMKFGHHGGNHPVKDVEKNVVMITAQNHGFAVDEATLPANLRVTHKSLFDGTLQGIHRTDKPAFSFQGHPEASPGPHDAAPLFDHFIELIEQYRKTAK
The assay can be described thus: Enzyme Assay. To be noted: pH 7.5. Here is the method: The rate of carbamoyl phosphate synthesis was determined by use of a coupled enzyme assay with ornithine transcarbamoylase.

Turning to `NC(=O)CCC(N)C(=O)O` (stereo not given) [Glutamine Analogue, 1], affinity was put at a Ki of 54 µM.

Consider `NC(CCC(=O)NO)C(=O)O` (stereo not given) [Glutamine Analogue, 2], for which the Ki (commonly the equilibrium dissociation constant of an inhibitor or competing ligand from its target) was determined as 9 µM.

On to `NNC(=O)CCC(N)C(=O)O` (stereo not given) [Glutamine Analogue, 3], for which the Ki amounted to 340 µM.

Regarding `NC(CCC(=O)O)C(=O)O` (stereo not given) [Glutamine Analogue, 4], the Ki was determined as 28000 µM.

In turn, `COC(=O)CCC(N)C(=O)O` (stereo not given) [Glutamine Analogue, 5] registered an inhibitory constant (Ki) of 25000 µM.
